Measured values taken from ChEMBL document CHEMBL1125767, “New 5H-pyridazino[4,5-b]indole derivatives. Synthesis and studies as inhibitors of blood platelet aggregation and inotropics” (J Med Chem, 1991).
Blank lines part the entries; values can stand above or below the molecule they belong to.

Assays:
[1] = species: Cavia porcellus; experiment: Inhibition of ADP-induced platelet aggregation in guinea pig whole blood at 10e-4 M; assay type: functional
[2] = species: Cavia porcellus; experiment: (§1) Inhibition of ADP-induced platelet aggregation in guinea pig whole blood at 5*10e-4 M; assay type: functional
[3] = species: Cavia porcellus; experiment: Inhibition of arachidonic acid induced platelet aggregation in guinea pig whole blood at 10e-4 M; assay type: functional
[4] = species: Cavia porcellus; experiment: Inhibition of arachidonic acid induced platelet aggregation in guinea pig whole blood at 10e-5 M; assay type: functional
[5] = species: Cavia porcellus; experiment: Inhibition of arachidonic acid induced platelet aggregation in guinea pig whole blood at 10e-6 M; assay type: functional
[6] = species: Cavia porcellus; experiment: (§2) Inhibition of arachidonic acid induced platelet aggregation in guinea pig whole blood at 5*10e-4 M; assay type: functional
[7] = species: Cavia porcellus; experiment: Inhibition of arachidonic acid induced platelet aggregation in guinea pig whole blood at 5*10e-5 M; assay type: functional
[8] = species: Cavia porcellus; experiment: Inhibition of arachidonic acid induced platelet aggregation in guinea pig whole blood at 5*10e-6 M; assay type: functional
[9] = species: Homo sapiens; experiment: Inhibition of arachidonic acid induced platelet aggregation in human platelet rich plasma at 10e-5 M; assay type: functional
[10] = species: Homo sapiens; experiment: Inhibition of adrenaline induced platelet aggregation in human platelet rich plasma at 10e-5 M; assay type: functional
[11] = species: Homo sapiens; experiment: Inhibition of collagen induced platelet aggregation in human platelet rich plasma at 10e-5 M; assay type: functional
[12] = species: Homo sapiens; experiment: Inhibition of ADP-induced platelet aggregation in human platelet rich plasma at 10e-5 M; assay type: functional
[13] = In vitro inhibitory activity against prostaglandin E2 in platelet aggregation induced by arachidonic acid at 10e-4 M concentration.; assay type: functional
[14] = In vitro inhibitory activity against prostaglandin E2 in platelet aggregation induced by arachidonic acid at 5*10e-4 M concentration.; assay type: functional
[15] = In vitro inhibitory activity against prostaglandin E2 in platelet aggregation induced by arachidonic acid at 5*10e-5 M concentration.; assay type: functional
[16] = system: PDE4 (Canis lupus familiaris); experiment: Inhibition of canine heart Phosphodiesterase 4 at 100 uM
[17] = species: Cavia porcellus; experiment: Inhibition of arachidonic acid induced platelet aggregation in guinea pig whole blood at 5*10e-4 M (not determined); assay type: functional
[18] = biological target: T1, Thromboxane-A synthase (Homo sapiens) (UniProt P24557); experiment: In vitro inhibitory activity against prostaglandin E2 in platelet aggregation induced by arachidonic acid at 10e-4 M concentration; (Change from basal value); assay type: functional
T1 sequence (whole entry): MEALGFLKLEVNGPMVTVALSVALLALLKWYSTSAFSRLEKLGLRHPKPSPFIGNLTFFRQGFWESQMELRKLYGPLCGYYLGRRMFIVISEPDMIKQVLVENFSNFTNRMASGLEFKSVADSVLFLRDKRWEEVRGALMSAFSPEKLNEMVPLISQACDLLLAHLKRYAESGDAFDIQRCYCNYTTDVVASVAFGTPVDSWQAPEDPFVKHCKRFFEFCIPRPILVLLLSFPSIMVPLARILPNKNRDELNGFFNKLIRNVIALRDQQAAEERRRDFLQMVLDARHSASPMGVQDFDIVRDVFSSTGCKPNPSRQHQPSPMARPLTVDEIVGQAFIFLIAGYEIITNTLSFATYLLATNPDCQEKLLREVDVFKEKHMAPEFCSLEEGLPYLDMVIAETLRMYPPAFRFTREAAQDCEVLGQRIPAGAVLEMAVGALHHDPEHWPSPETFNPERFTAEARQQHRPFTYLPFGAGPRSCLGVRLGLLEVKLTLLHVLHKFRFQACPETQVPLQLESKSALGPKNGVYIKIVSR

[19] = biological target: T1, Thromboxane-A synthase (Homo sapiens); experiment: In vitro inhibitory activity against prostaglandin E2 in platelet aggregation induced by arachidonic acid at 5*10e-4 M concentration; (Change from basal value); assay type: functional
[20] = biological target: T1, Thromboxane-A synthase (Homo sapiens); experiment: In vitro inhibitory activity against thromboxane B2 synthetase in platelet aggregation induced by arachidonic acid at 10e-4 M concentration; (Change from basal value); assay type: functional
[21] = biological target: T1, Thromboxane-A synthase (Homo sapiens); experiment: In vitro inhibitory activity against thromboxane B2 synthetase in platelet aggregation induced by arachidonic acid at 5*10e-4 M concentration; (Change from basal value); assay type: functional
[22] = biological target: PDE4 (Canis lupus familiaris); experiment: Inhibition of canine heart phosphodiesterase 4
[23] = species: Cavia porcellus; experiment: Inhibition of ADP-induced platelet aggregation in guinea pig whole blood at 5*10e-5 M; assay type: functional
[24] = species: Homo sapiens; experiment: Inhibition of adrenaline induced platelet aggregation in human platelet rich plasma at 7.5*10e-5 M; assay type: functional
[25] = species: Homo sapiens; experiment: Inhibition of collagen induced platelet aggregation in human platelet rich plasma at 7.5*10e-5 M; assay type: functional
[26] = species: Homo sapiens; experiment: Inhibition of ADP-induced platelet aggregation in human platelet rich plasma at 5*10e-5 M; assay type: functional
[27] = species: Homo sapiens; experiment: Inhibition of ADP-induced platelet aggregation in human platelet rich plasma at 7.5*10e-5 M; assay type: functional
[28] = species: Homo sapiens; experiment: Inhibition of arachidinoc acid induced platelet in human platelet rich plasma at 5*10e-5 M; assay type: functional
[29] = species: Homo sapiens; experiment: Inhibition of arachidinoc acid induced platelet in human platelet rich plasma at 7.5*10e-5 M.; assay type: functional
[30] = species: Homo sapiens; experiment: Inhibition of adrenaline induced platelet aggregation in human platelet rich plasma at 5*10e-5 M; assay type: functional
[31] = species: Homo sapiens; experiment: Inhibition of collagen induced platelet aggregation in human platelet rich plasma at 5*10e-5 M; assay type: functional
[32] = system: PDE4 (Canis lupus familiaris); experiment: Inhibition of canine heart Phosphodiesterase 4 at 50 uM
[33] = species: Homo sapiens; experiment: nhibition of ADP-induced platelet aggregation in human platelet rich plasma at 5*10e-5 M; assay type: functional
[34] = species: Homo sapiens; experiment: Inhibition of arachidonic acid induced platelet aggregation in human platelet rich plasma at 5*10e-5 M; assay type: functional
[35] = species: Cavia porcellus; experiment: Inhibition of ADP-induced platelet aggregation in guinea pig whole blood at 5*10e-3 M; assay type: functional
[36] = species: Cavia porcellus; experiment: Inhibition of arachidonic acid induced platelet aggregation in guinea pig whole blood at 5*10e-3 M; assay type: functional
[37] = species: Homo sapiens; experiment: Inhibition of arachidinoc acid induced platelet in human platelet rich plasma at 10e-5 M; assay type: functional
[38] = as §1; assay type: functional, Cavia porcellus
[39] = as §2; assay type: functional, Cavia porcellus
[40] = biological target: T1, Thromboxane-A synthase (Homo sapiens); experiment: In vitro inhibitory activity against prostaglandin E2 in platelet aggregation induced by arachidonic acid at 5*10e-3 M concentration; (Change from basal value); assay type: functional
[41] = biological target: T1, Thromboxane-A synthase (Homo sapiens); experiment: In vitro inhibitory activity against thromboxane B2 synthetase in platelet aggregation induced by arachidonic acid at 5*10e-3 M concentration; (Change from basal value); assay type: functional

inhibition [16]: 32.8%
Structure (SMILES): Cc1cc(C)n(-c2[nH]nc(N3CCCCC3)c3c4ccccc4nc2-3)n1
inhibition at 100 µM [1]: 0% | Inhibition [2]: 64.83% | inhibition at 100 µM [3]: 99.4% | inhibition at 10 µM [4]: 67.5% | inhibition at 1 µM [5]: 0% | Inhibition [6]: 100% | Inhibition [7]: 99.5% | Inhibition [8]: 26.38% | inhibition at 10 µM [9]: 83.8% | inhibition at 10 µM [10]: 42.5% | inhibition at 10 µM [11]: 0% | inhibition at 10 µM [12]: 23.9% | inhibition at 100 µM [13]: -91% | Inhibition [14]: -80.4% | Inhibition [15]: -100%

IC50 [22]: 121 µM
Structure (SMILES): NNC(=O)c1n[nH]c2c3nc4ccccc4c-3c(NN)nn12 [listing 1 of 3 here]

inhibition [16]: 33.4%
Structure (SMILES): Cc1cc(C)n(-c2n[nH]c(N3CCN(C)CC3)c3c4ccccc4nc2-3)n1
Inhibition [2]: 89.25% | Inhibition [6]: 78.25%

IC50 [22]: 348 µM
Structure (SMILES): Cc1cc(C)n(-c2[nH]nc(NN)c3c4ccccc4nc2-3)n1.Cl
inhibition at 100 µM [1]: 23% | Inhibition [2]: 90% | Inhibition [23]: 0% | inhibition at 100 µM [3]: 83% | Inhibition [6]: 97% | Inhibition [7]: 0% | Inhibition [24]: 22% | Inhibition [25]: 78.4% | Inhibition [26]: 22% | Inhibition [27]: 23% | Inhibition [28]: 4.8% | Inhibition [29]: 6.5% | Inhibition [30]: 0% | Inhibition [31]: 0% | Inhibition [14]: 11.8%

inhibition [16]: 38%
Structure (SMILES): Cc1cc(C)n(-c2[nH]nc(N3CCOCC3)c3c4ccccc4nc2-3)n1
inhibition at 100 µM [1]: 0% | Inhibition [2]: 47.83% | inhibition at 100 µM [3]: 99.4% | inhibition at 10 µM [4]: 0% | Inhibition [6]: 100% | Inhibition [7]: 59.83% | inhibition at 10 µM [9]: 3.35% | inhibition at 10 µM [10]: 0% | inhibition at 10 µM [11]: 36.6% | inhibition at 10 µM [12]: 24.8% | inhibition at 100 µM [13]: -80% | Inhibition [14]: -78%

inhibition [16]: 55.9%
Structure (SMILES): NNC(=O)c1n[nH]c2c3nc4ccccc4c-3c(NN)nn12 [listing 2 of 3 here]

inhibition [16]: 37%
Structure (SMILES): CCOC(=O)c1n[nH]c2c3nc4ccccc4c-3c(Cl)nn12
Inhibition [2]: 57.63% | Inhibition [6]: 13.4%

inhibition [16]: 9.39%
Structure (SMILES): Cc1cc(C)n(-c2[nH]nc(NN)c3c4ccccc4nc2-3)n1 [listing 2 of 2 here]

inhibition [32]: 11.9%
Structure (SMILES): COc1ccccc1N1CCN(c2[nH]nc(-n3nc(C)cc3C)c3nc4ccccc4c2-3)CC1

IC50 [22]: 118 µM | inhibition [16]: 44.8%
Structure (SMILES): CNNc1[nH]nc(-n2nc(C)cc2C)c2nc3ccccc3c1-2
inhibition at 100 µM [1]: 0% | Inhibition [2]: 33.8% | Inhibition [33]: 0% | inhibition at 100 µM [3]: 7.86% | Inhibition [6]: 100% | Inhibition [34]: 0% | Inhibition [30]: 0% | Inhibition [31]: 0% | Inhibition [14]: -72.8%

Prostaglandin E2 level [40]: -100% | Thromboxane B2 level [41]: -100%
Structure (SMILES): CC(=O)Oc1ccccc1C(=O)O [ASPIRIN]
Inhibition [35]: 15% | Inhibition [36]: 30% | inhibition at 10 µM [10]: 38.3% | inhibition at 10 µM [11]: 52% | inhibition at 10 µM [12]: 20% | inhibition at 10 µM [37]: 90% | Inhibition [38]: 100% | Inhibition [39]: 100%

The remaining lines, values behind:

Structure (SMILES): Cc1cc(C)n(-c2[nH]nc(NN)c3c4ccccc4nc2-3)n1 [listing 1 of 2 here]
Inhibition [2]: 67.83% | Inhibition [17]: 92.14% | Inhibition [14]: 96%

Structure (SMILES): c1ccc2c(c1)[nH]c1c(-c3ncc[nH]3)nnc(-c3ncc[nH]3)c12
inhibition at 100 µM [1]: 23.2% | Inhibition [2]: 24.25% | inhibition at 100 µM [3]: 100% | Inhibition [6]: 98.88% | Prostaglandin E2 level [18]: 518% | Prostaglandin E2 level [19]: 119% | Thromboxane B2 level [20]: -61% | Thromboxane B2 level [21]: -31%

Structure (SMILES): Nc1cc(-c2ccncc2)c[nH]c1=O [INAMRINONE]
Inhibition [2]: 49% | Inhibition [6]: 100%

Structure (SMILES): COc1ccccc1N1CCN(c2n[nH]c(N3CCN(c4ccccc4OC)CC3)c3c4ccccc4nc2-3)CC1
inhibition at 100 µM [1]: 0% | Inhibition [2]: 64% | inhibition at 100 µM [3]: 26.6% | Inhibition [6]: 56.13% | inhibition [16]: 7.52%

Structure (SMILES): CCOc1ccccc1N1CCN(c2[nH]nc(-n3nc(C)cc3C)c3nc4ccccc4c2-3)CC1
inhibition [32]: 17.6%

Structure (SMILES): NNc1nncc2ccccc12 [HYDRALAZINE]
Inhibition [2]: 0% | Inhibition [6]: 20%

Structure (SMILES): NNC(=O)c1n[nH]c2c3nc4ccccc4c-3c(NN)nn12 [listing 3 of 3 here]
inhibition at 100 µM [1]: 8.25% | inhibition at 100 µM [3]: 38.3%

Structure (SMILES): Cc1cc(C)n(-c2n[nH]c(-n3nc(C)cc3C)c3c4ccccc4nc2-3)n1
inhibition [16]: 29.5%

Structure (SMILES): Cc1cc(C)n(-c2[nH]nc(Cl)c3c4ccccc4nc2-3)n1
Inhibition [2]: 31% | Inhibition [6]: 46.17%

Structure (SMILES): COc1ccc(N2CCN(c3[nH]nc(-n4nc(C)cc4C)c4nc5ccccc5c3-4)CC2)cc1
inhibition [16]: 4.8%

Structure (SMILES): Cc1cc(C)n(-c2[nH]nc(N3CCN(c4ccc(F)cc4)CC3)c3c4ccccc4nc2-3)n1
inhibition [32]: 2.52%
